Molecular target: T1, 5-HT₃ receptor (Rattus norvegicus, UniProt P35563)
T1 construct: from tissue
T1 sequence (P35563 24-483): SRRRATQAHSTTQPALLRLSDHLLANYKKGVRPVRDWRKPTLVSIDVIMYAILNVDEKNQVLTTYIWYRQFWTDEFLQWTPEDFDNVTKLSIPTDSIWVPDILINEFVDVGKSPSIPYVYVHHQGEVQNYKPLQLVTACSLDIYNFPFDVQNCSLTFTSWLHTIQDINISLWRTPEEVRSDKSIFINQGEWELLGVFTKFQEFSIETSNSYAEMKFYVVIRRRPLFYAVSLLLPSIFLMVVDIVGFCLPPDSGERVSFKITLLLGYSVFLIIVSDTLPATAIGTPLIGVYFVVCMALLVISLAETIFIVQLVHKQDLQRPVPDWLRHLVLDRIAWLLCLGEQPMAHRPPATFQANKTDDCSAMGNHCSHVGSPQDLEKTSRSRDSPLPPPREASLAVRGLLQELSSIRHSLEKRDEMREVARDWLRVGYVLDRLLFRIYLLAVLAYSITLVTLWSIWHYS
Experiment: Inhibition of serotonin-induced Von Bezold-Jarisch reflex in rats
Type: in vivo
Conditions: 15 minutes prior to 5-HT; for inhibition at 0.003 mg/kg / inhibition at 0.01 mg/kg / inhibition at 0.001 mg/kg / inhibition at 0.03 mg/kg: rat, iv, read-out: Percent Inhibition of Reflex in Rats; for inhibition at 0.001 mg/kg: 0.001 mg/kg I.V.; for inhibition at 0.03 mg/kg: 0.03 mg/kg I.V.
Source text: The compounds of Formula I of this invention are long-acting, orally effective specific 5-HT₃ receptor antagonists, rendering them useful for the treatment of migraine. Because of this mechanism, the compounds of this invention should also be useful for treating emesis, motion sickness, ischemic bowel disease, diabetic gastric paresis, relaxation of the gastro-intestinal tract for instrumentation, other gastro-intestinal pain following surgery, obstetrics or as in abdominal cramps, and for treating CNS disorders such as schizophrenia and anxiety. The ability of these compounds to antagonize the effects of 5-HT was assessed by their inhibition of the Von Bezold-Jarisch reflex induced by 5-HT injected intravenously into the rat (See Paintal, Physiol. Rev., 53, 159 (1973)). When administered by the intravenous route 15 minutes prior to the administration of 5-HT, the compounds of this invention were effective in inhibiting the serotonin-induced Bezold-Jarisch reflex as summarized in Table 1 below: Table 1

| SMILES | inhibition at 0.003 mg/kg (0.003 mg/kg I.V.) [%] | inhibition at 0.01 mg/kg (0.01 mg/kg I.V.) [%] | further results |
| --- | --- | --- | --- |
| CC1(C)Cc2cc(Cl)cc(C(=O)NC3CN4CCC3CC4)c2O1 (stereo not drawn) [Example 49, 2,3-Dihydro-5-chloro-2,2-dimethyl-N-(1-azabicyclo[2.2.2]oct-3-yl)-7-benzofurancarboxamide (Z)-2-butenedioate] | 40 | 89 | – |
| CN1[C@@H]2CCC[C@H]1C[C@@H](NC(=O)c1cccc3c1OC(C)(C)C3)C2 [Example 55, Endo-2,3-dihydro-2,2-dimethyl-N-(9-methyl-9-azabicyclo[3.3.1]non-3-yl)-7-benzofurancarboxamide (Z)-2-butenedioate] | 88 | – | – |
| CC1Cc2cc(Cl)cc(C(=O)O[C@H]3C[C@H]4CC[C@@H](C3)N4C)c2O1 (mixture of isomers) [Example 34, dl-endo-5-chloro-2,3-dihydro-2-methyl-7-benzofurancarboxylic acid, 8-methyl-8-azabicyclo[3.2.1]oct-3-yl ester (Z)-2-butenedioate] | 51 | 69 | inhibition at 0.001 mg/kg: 6% |
| CN1[C@@H]2CC[C@H]1C[C@@H](NC(=O)c1cccc3c1CC(C)(C)O3)C2 [Example 22, Endo-2,3-dihydro-2,2-dimethyl-N-(8-methyl-8-azabicyclo[3.2.1]oct-3-yl)-4-benzofurancarboxamide (Z)-2-butenedioate] | – | -4 | – |
| CN1[C@@H]2CC[C@H]1C[C@@H](NC(=O)c1cccc3c1OC(C)(C)C3)C2 [Example 17, Endo-2,3-dihydro-2,2-dimethyl-N-(8-methyl-8-azabicyclo[3.2.1]oct-3-yl)-7-benzofurancarboxamide (Z)-2-butenedioate] | -2 | 53 | inhibition at 0.03 mg/kg: 82% |
| CC1Cc2cc(F)cc(C(=O)O[C@H]3C[C@H]4CC[C@@H](C3)N4C)c2O1 (mixture of isomers) [Example 31, dl-endo-5-fluoro-2,3-dihydro-2-methyl-7-benzofurancarboxylic acid, 8-methyl-8-azabicyclo[3.2.1]oct-3-yl ester (Z)-2-butenedioate] | – | 32 | – |
| COc1cc2c(c(C(=O)O[C@H]3C[C@H]4CC[C@@H](C3)N4C)c1)OC(C)C2 (mixture of isomers) [Example 28, dl-endo-2-methyl-5-methoxy-2,3-dihydro-7-benzofurancarboxylic acid, 8-methyl-8-azabicyclo[3.2.1]-oct-3-yl ester (Z)-2-butenedioate] | – | 4 | – |
| CC1Cc2cccc(C(=O)N[C@@H]3C[C@H]4CC[C@@H](C3)N4C)c2O1 (mixture of isomers) [Example 38, dl-exo-2,3-dihydro-2-methyl-N-(8-methyl-8-azabicyclo[3.2.1]oct-3-yl)-7-benzofurancarboxamide (Z)-2-butenedioate] | – | 26 | inhibition at 0.03 mg/kg: 51% |
| COc1ccc(C(=O)N[C@H]2C[C@H]3CC[C@@H](C2)N3C)c2c1CC(C)(C)O2 [Example 52, Endo-2,3-dihydro-4-methoxy-2,2-dimethyl-N-(8-methyl-8-azabicyclo[3.2.1]oct-3-yl)-7-benzofurancarboxamide (Z)-2-butenedioate] | -7 | – | – |
| COc1c(Cl)cc(C(=O)N[C@H]2C[C@H]3CC[C@@H](C2)N3C)c2c1CC(C)(C)O2 [Example 57, Endo-5-chloro-2,3-dihydro-4-methoxy-2,2-dimethyl-N-(8-methyl-8-azabicyclo[3.2.1]oct-3-yl)-7-benzofurancarboxamide (Z)-2-butenedioate] | – | 3 | – |
| CN1[C@@H]2CC[C@H]1C[C@@H](NC(=O)c1cc(O)cc3c1OC(C)(C)C3)C2 [Example 62, Endo-2,3-dihydro-5-hydroxy-2,2-dimethyl-N-(8-methyl-8-azabicyclo[3.2.1]oct-3-yl)-7-benzofurancarboxamide (Z)-2-butenedioate] | – | 54 | – |
| CN1[C@@H]2CC[C@H]1C[C@H](OC(=O)c1cc(Cl)cc3c1OC(C)(C)C3)C2 [Example 26, Exo-2,2-dimethyl-5-chloro-2,3-dihydro-7-benzofurancarboxylic acid, 8-methyl-8-azabicyclo[3.2.1]oct-3-yl ester (Z)-2-butenedioate] | – | 2 | – |
| Cc1cc2c(c(C(=O)O[C@H]3C[C@H]4CC[C@@H](C3)N4C)c1)OC(C)(C)C2 [Example 37, Endo-2,3-dihydro-2,2,5-trimethyl-7-benzofurancarboxylic acid, 8-methyl-8-azabicyclo[3.2.1]oct-3-yl ester (Z)-2-butenedioate] | – | 4 | – |
| CN1[C@@H]2CC[C@H]1C[C@@H](NC(=O)c1cc(Cl)c(N)c3c1OC(C)(C)C3)C2 [Example 56, Endo-2,3-dihydro-4-amino-5-chloro-2,2-dimethyl-N-(8-methyl-8-azabicyclo[3.2.1]oct-3-yl)-7-benzofurancarboxamide (Z)-2-butenedioate] | 25 | 89 | – |
| CN1[C@@H]2CC[C@H]1C[C@@H](NC(=O)c1ccc3c(c1)OC(C)(C)C3)C2 [Example 23, Endo-2,3-dihydro-2,2-dimethyl-N-(8-methyl-8-azabicyclo[3.2.1]oct-3-yl)-6-benzofurancarboxamide (Z)-2-butenedioate] | – | -8 | – |
| CN1C2CCC1CC(NC(=O)c1cc(Cl)cc3c1OC(C)(C)C3)C2.O=C(O)/C=C\C(=O)O (stereo not drawn) [Example 30, Exo-2,2-dimethyl-5-chloro-2,3-dihydro-N-(8-methyl-8-azabicyclo[3.2.1]oct-3-yl)-7-benzofurancarboxamide (Z)-2-butenedioate] | – | – | Percent Inhibition of Reflex in Rats (0.003 mg/kg I.V.): 26%; Percent Inhibition of Reflex in Rats (0.01 mg/kg I.V.): 67% |
| Cc1cc2c(c(C(=O)O[C@H]3C[C@H]4CC[C@@H](C3)N4C)c1)OC(C)C2 (mixture of isomers) [Example 40, dl-endo-2,3-dihydro-2,5-dimethyl-7-benzofurancarboxylic acid, 8-methyl-8-azabicyclo[3.2.1]oct-3-yl ester (Z)-2-butenedioate] | 14 | 67 | inhibition at 0.001 mg/kg: 3% |
| CC1Cc2cccc(C(=O)O[C@H]3C[C@H]4CC[C@@H](C3)N4C)c2O1 (mixture of isomers) [Example 35, dl-endo-2,3-dihydro-2-methyl-7-benzofurancarboxylic acid, 8-methyl-8-azabicyclo[3.2.1]oct-3-yl ester (Z)-2-butenedioate] | – | 31 | – |
| CN1[C@@H]2CCC[C@H]1C[C@@H](NC(=O)c1cc(Cl)cc3c1OC(C)(C)C3)C2 [Example 54] | 84 | 94 | – |
| CN1[C@@H]2CC[C@H]1C[C@@H](OC(=O)c1cccc3c1OC(C)(C)C3)C2 [Example 24, Endo-2,3-dihydro-2,2-dimethyl-7-benzofurancarboxylic acid, 8-methyl-8-azabicyclo[3.2.1]oct-3-yl ester (Z)-2-butenedioate] | 21 | 38 | – |
| CC1(C)Cc2cccc(C(=O)NC3CN4CCC3CC4)c2O1 (stereo not drawn) [Example 60, 2,3-Dihydro-2,2-dimethyl-N-(1-azabicyclo[2.2.2]oct-3-yl)-7-benzofurancarboxamide (Z)-2-butenedioate] | 87 | – | inhibition at 0.001 mg/kg: 25% |
| CC1(C)CCc2cccc(C(=O)NC3CN4CCC3CC4)c2O1 (stereo not drawn) [Example 53, N-(1-azabicyclo[2.2.2]oct-3-yl)-3,4-dihydro-2,2-dimethyl-2H-1-benzopyran-8-carboxamide (Z)-2-butenedioate] | 93 | – | inhibition at 0.001 mg/kg: 50% |
| CN1[C@@H]2CC[C@H]1C[C@@H](NC(=O)c1cccc3c1OC(C)(C)CC3)C2 [Example 36, Endo-2,2-dimethyl-N-(8-methyl-8-azabicyclo[3.2.1]oct-3-yl)-8-chromancarboxamide (Z)-2-butenedioate] | – | 76 | inhibition at 0.001 mg/kg: 4% |
| COc1cc2c(c(C(=O)N[C@H]3C[C@H]4CC[C@@H](C3)N4C)c1)OC(C)(C)C2 [Example 41, Endo-2,3-dihydro-2,2-dimethyl-5-methoxy-N-(8-methyl-8-azabicyclo[3.2.1]oct-3-yl)-7-benzofurancarboxamide (Z)-2-butenedioate] | – | -1 | – |
| CC1Cc2cc(Cl)cc(C(=O)N[C@H]3C[C@H]4CC[C@@H](C3)N4C)c2O1 (mixture of isomers) [Example 32, dl-endo-5-chloro-2,3-dihydro-2-methyl-N-(8-methyl-8-azabicyclo[3.2.1]oct-3-yl)-7-benzofurancarboxamide (Z)-2-butenedioate] | 80 | 80 | inhibition at 0.001 mg/kg: 58% |
